Test results taken from US12257287B2, “Glucagon-derived peptide and use thereof” (Tianjin Institute of Pharmaceutical Research Co., Ltd., priority 2018, dated 2025).
Values after ≈ are worked out from the molar mass of the structure shown. Marks after values point to notes of the source that are not given here. Peptide text beside a SMILES is read from it.

Columns and labels:
[1] = Glucose tolerance test in glucose-loaded DIO mice; format: in vivo; set-up: AUC reduction rate (%), Table 6: concentration or dose not given beside the values; conditions: for AUC of blood glucose, Table 6: Example 4, DIO mice under glucose load, methods as in Example 3; for AUC reduction rate (%), Table 6: Example 4, compared with model control group, DIO mice under glucose load
Description: DIO mice fasted for 16 h, and 1 h after administration by subcutaneous injection, glucose solution (1 g/kg) was given intraperitoneally for glucose tolerance test. Blood glucose values were measured at 0.5, 1 and 1.5 h after glucose administration. The area under the blood glucose concentration curve (AUC) was calculated and compared with that of the model control group, and the blood glucose inhibition rate (%) was calculated.
(§1) Methods are the same as that in Example 3, the test results of effects on body weight are shown in Table 5, and the effects on blood glucose are shown in Table 6. In the table, 5 #-9 # are compound 27, compound 35, compound 54, compound 57, and compound 66, respectively.

[2] = Effect on body weight of DIO mice after 14 days' administration; format: in vivo, C57BL/6J mice; conditions: for body weight change, Table 5: Example 4, DIO mice, 14 days' administration, methods as in Example 3
Source text: C57BL/6J mice (n=35), model group (n=30) were fed with H10060 high-fat diet to induce obesity (DIO), blank control group (n=5) were fed with standard diet, both for 34 weeks. One day before the first administration, the model group was randomly divided into groups according to their body weight (average body weight range 45.0-52.0 g), with 5 mice in each group, which respectively were model control group, positive control group (semaglutide), and test sample group (1 #-4 # are compound 1, compound 4, compound 6 and compound 22, respectively). The blank control group and model control group were given saline subcutaneously every day, while the positive control group and test sample group were administrated by subcutaneous injection every day for 14 days. The body weight of the animals was weighed and recorded every day, and the change rate of body weight (%) was calculated by comparing the body weight at the last administration day with the initial body weight. (initial body weight−last body weight)/initial body weight=body weight change rate (%). Calculation formula: […]
Calculated positive values indicate a decrease and negative values indicate an increase.
as §1

[3] = target: T1, GC receptor (Homo sapiens, UniProt P47871); assay: GC receptor mediated cAMP production in vitro (HEK293 cells transfected with GC receptor); format: cell-based; conditions: 20 min at 37° C., read-out: GCGR (nM EC50)
T1 construct: expressed in transfected cells; host or cells: HEK293 cells
T1 sequence (P47871 26-477): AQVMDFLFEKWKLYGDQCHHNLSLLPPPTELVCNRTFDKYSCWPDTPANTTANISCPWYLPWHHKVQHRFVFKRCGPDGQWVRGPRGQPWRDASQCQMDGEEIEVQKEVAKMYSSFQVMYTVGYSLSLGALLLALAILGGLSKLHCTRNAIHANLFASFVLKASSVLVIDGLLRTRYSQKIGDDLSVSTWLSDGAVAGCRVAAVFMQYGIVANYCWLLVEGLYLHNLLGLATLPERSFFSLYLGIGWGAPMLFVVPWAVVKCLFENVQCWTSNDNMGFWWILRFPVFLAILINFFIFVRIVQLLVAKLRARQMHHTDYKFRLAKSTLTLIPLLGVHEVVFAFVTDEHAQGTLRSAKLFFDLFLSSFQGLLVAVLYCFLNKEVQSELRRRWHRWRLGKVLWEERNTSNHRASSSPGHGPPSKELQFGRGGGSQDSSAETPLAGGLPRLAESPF
Source text: The medium was removed, the cells were lysed, and cAMP values were detected referring to the detection method described for the assay kit.

[4] = physchem; format: physicochemical
[5] = Accelerated chemical stability in injection solvent system (HPLC-UV); format: physicochemical; conditions: 14 days, phosphate buffer pH 7.3 with Tween 80 and phenol, main peak area vs day 0
Description: The chemical stability of the compounds of the present invention in injection solution systems was evaluated by an accelerated stability test. Methods: an appropriate amount of compound of Example 1 was weighed, and dissolved in 10 mM pH8.5 sodium hydrogen phosphate buffer. The final pH value of the solution was adjusted to 7.3 with 0.1 N hydrochloric acid, and proper amounts of Tween 80 and phenol were added. The mixture was placed at 10° C. and 37° C. for 14 days, and detected by HPLC-UV. The main peak area was obtained by peak area normalization method, and the changes compared with day 0 were investigated. The HPLC detection method was the same as that in Example 6, and the mobile phase gradient was appropriately adjusted according to the situation of chromatographic peak separation.

[6] = Short-term administration: food intake and body weight in DIO mice; format: in vivo; conditions: 30 nmol/kg once every 24 h, twice, − decrease; for Rate of change in food intake (%): at 48 hours vs day before administration; for Body weight change: at 48 hours
Description: Method: diet-induced obese mice (DIO) with an average body weight of 52.5 g were divided into model control and test groups, 5 mice in each group. The test samples were dissolved in 10 mM PBS of pH7.4, injected once every 24 h at a dose of 30 nmol/kg, and administered twice. The model group was injected with solvent. Changes in food intake and body weight at 48 hours were measured, and the change rates were calculated compared to the day before administration.

[7] = pH 7.5, Solubility, pH 7.5, 10 mM phosphate buffer
[8] = pH 7.5, Solubility, pH 7.5, 20 mM phosphate buffer
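Throughout, for Solubility: compound added at 2 mg per mL of phosphate buffer, with the dissolved amount determined in the supernatant.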

EC50 [3] [nM]	solubility [4, 7] [µg/mL]	solubility [4, 8] [µg/mL]	solubility ([4]; pH 8, Solubility, pH 8.0, 10 mM phosphate buffer) [µg/mL]	solubility ([4]; pH 8, Solubility, pH 8.0, 20 mM phosphate buffer) [µg/mL]	Change in purity % (10° C.) [5] [%]	Change in purity % (37° C.) [5] [%]	SMILES	glucose tolerance / blood glucose lowering (in words) ([1]; DIO mice, conclusions on Tables 4 and 6)	body weight reduction (in words) ([2]; DIO mice, 14 days, conclusions on Tables 3 and 5)	Rate of change in food intake (%) [6] [%]	Body weight change [6] [g]	AUC of blood glucose, Table 6 ([1]; listed as 7#) [mmol·h/L]	AUC reduction rate (%), Table 6 ([1]; listed as 7#)	body weight change, Table 5 ([2]; positive values indicate a decrease, listed as 7#)	AUC of blood glucose, Table 6 ([1]; listed as 5#) [mmol·h/L]	AUC reduction rate (%), Table 6 ([1]; listed as 5#)	body weight change, Table 5 ([2]; positive values indicate a decrease, listed as 5#)	AUC of blood glucose, Table 4 ([1]; DIO mice fasted 16 h, glucose 1 g/kg i.p. 1 h after s.c. administration, 0.5, 1, 1.5 h) [mmol·h/L]	AUC reduction rate (%), Table 4 ([1]; blood glucose inhibition rate compared with model control group, DIO mice, glucose 1 g/kg i.p.)	body weight change rate, Table 3 ([2]; DIO mice, subcutaneous injection every day for 14 days, (initial−last)/initial, positive values indicate a decrease) [%]
0.081	1460 (≈ 343 µM)	1310 (≈ 308 µM)	1840 (≈ 432 µM)	1530 (≈ 359 µM)	−1.1	−4.0	CCCCCCCCCCCCCCCC(=O)N[C@@H](CCC(=O)N[C@@H](CCC(=O)NCCCC[C@H](NC(=O)[C@H](C)NC(=O)[C@H](CCCNC(=N)N)NC(=O)[C@H](CCCCN)NC(=O)[C@H](CCC(=O)O)NC(=O)[C@H](CC(=O)O)NC(=O)[C@H](CC(C)C)NC(=O)[C@H](Cc1ccc(O)cc1)NC(=O)[C@H](CCCCN)NC(=O)[C@H](CO)NC(=O)[C@H](Cc1ccc(O)cc1)NC(=O)[C@H](CC(=O)O)NC(=O)[C@H](CO)NC(=O)[C@@H](NC(=O)[C@H](Cc1ccccc1)NC(=O)[C@@H](NC(=O)CNC(=O)[C@H](CCC(N)=O)NC(=O)C(C)(C)NC(=O)[C@@H](N)Cc1c[nH]cn1)[C@@H](C)O)[C@@H](C)O)C(=O)N[C@@H](CCC(=O)O)C(=O)N[C@@H](Cc1ccccc1)C(=O)N[C@H](C(=O)N[C@@H](C)C(=O)N[C@@H](Cc1c[nH]c2ccccc12)C(=O)N[C@@H](CC(C)C)C(=O)N[C@@H](CCC(=O)O)C(=O)N[C@@H](C)C(=O)NCC(=O)NCC(=O)N1CCC[C@H]1C(=O)N[C@@H](CO)C(=O)N[C@@H](CO)C(=O)NCC(N)=O)[C@@H](C)CC)C(=O)O)C(=O)O [Compound 57] (HELM PEPTIDE1{H.[Aib].Q.G.T.F.T.S.D.Y.S.K.Y.L.D.E.K.R.A.K.E.F.I.A.W.L.E.A.G.G.P.S.S.G.[am]}|PEPTIDE2{[CCCCCCCCCCCCCCCC(=O)[*:2]].[gGlu].[gGlu]}$PEPTIDE1,PEPTIDE2,20:R3-3:R2$$$V2.0; N-terminus assumed)	significantly improved glucose tolerance	significantly reduced body weight	−71	-2.6									
0.026							CCCCCCCCCCCCCCCC(=O)N[C@@H](CCC(=O)N[C@@H](CCC(=O)NCCCC[C@H](NC(=O)[C@H](CC(=O)O)NC(=O)[C@H](CO)NC(=O)[C@@H](NC(=O)[C@H](Cc1ccccc1)NC(=O)[C@@H](NC(=O)CNC(=O)[C@H](CCC(N)=O)NC(=O)C(C)(C)NC(=O)[C@@H](N)Cc1c[nH]cn1)[C@@H](C)O)[C@@H](C)O)C(=O)N[C@@H](CO)C(=O)N[C@@H](CCCCN)C(=O)N[C@@H](Cc1ccc(O)cc1)C(=O)N[C@@H](CC(C)C)C(=O)N[C@@H](CCC(=O)O)C(=O)N[C@@H](CCC(=O)O)C(=O)N[C@@H](CCCNC(=N)N)C(=O)N[C@@H](C)C(=O)N[C@@H](C)C(=O)N[C@@H](CCCCN)C(=O)N[C@@H](CCC(=O)O)C(=O)N[C@@H](Cc1ccccc1)C(=O)N[C@H](C(=O)N[C@@H](CCC(=O)O)C(=O)N[C@@H](Cc1c[nH]c2ccccc12)C(=O)N[C@@H](CC(C)C)C(=O)N[C@@H](CCC(=O)O)C(=O)NCC(=O)NCC(=O)N1CCC[C@H]1C(=O)N[C@@H](CO)C(=O)N[C@@H](CO)C(=O)NCC(N)=O)C(C)C)C(=O)O)C(=O)O [Compound 7] (HELM PEPTIDE1{H.[Aib].Q.G.T.F.T.S.D.K.S.K.Y.L.E.E.R.A.A.K.E.F.V.E.W.L.E.G.G.P.S.S.G.[am]}|PEPTIDE2{[CCCCCCCCCCCCCCCC(=O)[*:2]].[gGlu].[gGlu]}$PEPTIDE1,PEPTIDE2,10:R3-3:R2$$$V2.0; N-terminus assumed)					7.26 ± 1.77	63.4** %	21.45						
0.193							CCCCCCCCCCCCCCCC(=O)N[C@@H](CCC(=O)N[C@@H](CCC(=O)NCCCC[C@H](NC(=O)[C@H](CC(=O)O)NC(=O)[C@H](CO)NC(=O)[C@@H](NC(=O)[C@H](Cc1ccccc1)NC(=O)[C@@H](NC(=O)CNC(=O)[C@H](CCC(N)=O)NC(=O)C(C)(C)NC(=O)[C@@H](N)Cc1c[nH]cn1)[C@@H](C)O)[C@@H](C)O)C(=O)N[C@@H](CO)C(=O)N[C@@H](CCCCN)C(=O)N[C@@H](Cc1ccc(O)cc1)C(=O)N[C@@H](CC(C)C)C(=O)N[C@@H](CCC(=O)O)C(=O)N[C@@H](CCC(=O)O)C(=O)N[C@@H](CCCNC(=N)N)C(=O)N[C@@H](C)C(=O)N[C@@H](C)C(=O)N[C@@H](CCCCN)C(=O)N[C@@H](CCC(=O)O)C(=O)N[C@@H](Cc1ccccc1)C(=O)N[C@H](C(=O)N[C@@H](CCC(=O)O)C(=O)N[C@@H](Cc1c[nH]c2ccccc12)C(=O)N[C@@H](CC(C)C)C(=O)N[C@@H](CCC(=O)O)C(=O)NCC(=O)NCC(=O)N1CCC[C@H]1C(=O)N[C@@H](CO)C(=O)N[C@@H](CO)C(=O)NCC(N)=O)C(C)C)C(=O)O)C(=O)O [Compound 5] (HELM PEPTIDE1{H.[Aib].Q.G.T.F.T.S.D.K.S.K.Y.L.E.E.R.A.A.K.E.F.V.E.W.L.E.G.G.P.S.S.G.[am]}|PEPTIDE2{[CCCCCCCCCCCCCCCC(=O)[*:2]].[gGlu].[gGlu]}$PEPTIDE1,PEPTIDE2,10:R3-3:R2$$$V2.0; N-terminus assumed)								7.12 ± 1.30	64.2** %	27.74			
0.0574	> 2000	> 2000			−1.4	−5.2	CCCCCCCCCCCCCCCC(=O)N[C@@H](CCC(=O)N[C@@H](CCC(=O)NCCCC[C@H](NC(=O)[C@H](CC(=O)O)NC(=O)[C@H](CO)NC(=O)[C@@H](NC(=O)[C@H](Cc1ccccc1)NC(=O)[C@@H](NC(=O)CNC(=O)[C@H](CCC(N)=O)NC(=O)C(C)(C)NC(=O)[C@@H](N)Cc1c[nH]cn1)[C@@H](C)O)[C@@H](C)O)C(=O)N[C@@H](CO)C(=O)N[C@@H](CCCCN)C(=O)N[C@@H](Cc1ccc(O)cc1)C(=O)N[C@@H](CC(C)C)C(=O)N[C@@H](CCC(=O)O)C(=O)N[C@@H](CCC(=O)O)C(=O)N[C@@H](CCCNC(=N)N)C(=O)N[C@@H](C)C(=O)N[C@@H](C)C(=O)N[C@@H](CCCCN)C(=O)N[C@@H](CCC(=O)O)C(=O)N[C@@H](Cc1ccccc1)C(=O)N[C@H](C(=O)N[C@@H](C)C(=O)N[C@@H](Cc1c[nH]c2ccccc12)C(=O)N[C@@H](CC(C)C)C(=O)N[C@@H](CCC(=O)O)C(=O)N[C@@H](C)C(=O)NCC(=O)NCC(=O)N1CCC[C@H]1C(=O)N[C@@H](CO)C(=O)N[C@@H](CO)C(=O)NCC(N)=O)[C@@H](C)CC)C(=O)O)C(=O)O [Compound 1] (HELM PEPTIDE1{H.[Aib].Q.G.T.F.T.S.D.K.S.K.Y.L.E.E.R.A.A.K.E.F.I.A.W.L.E.A.G.G.P.S.S.G.[am]}|PEPTIDE2{[CCCCCCCCCCCCCCCC(=O)[*:2]].[gGlu].[gGlu]}$PEPTIDE1,PEPTIDE2,10:R3-3:R2$$$V2.0; N-terminus assumed)			−58	-2.8							7.24 ± 1.33	65.8** %	28.3
